In patent US20250340837A1, “CELLS” (University of Geneva, priority 2022, published 2025):

What was measured:
C57Bl/6 ANPGs [1] = test: Neurosphere growth and self-propagation induction in low stemness ANPGs; assay type: cell-based, mouse
Experimental: (B) Picture showing representative triplicate of ANPG spheres cultured for 1 month in a 96 well plate. Phoenix cells are used as positive control. C57Bl/6: ANPGs were cultured in DMEM:F12+N2 and B27 supplements without growth factors. +GF: DMEM:F12+N2 and B27+FGF 10 ng/mL+EGF 20 ng/mL+IGF 50 ng/mL+Heparan Sulfate 50 ng/mL. GF+DS:DMEM:F12+N2 and B27+IGF+EFG+HS+FGF+LDN193189 0.5 μM+SB431542 10 μM. GF+CHIR: DMEM:F12+N2 and B27+IGF+EFG+HS+FGF+CHIR99021 3 μM. +GF+CHIR+DS: DMEM:F12+N2 and B27+IGF+EFG+HS+FGF+LDN193189 0.5 μM+SB431542 10 μM+CHIR99021 3 μM. Phoenix+GF: phoenix ANPG cultured in standard conditions (DMEM:F12+N2 and B27+IGF+EFG+HS+FGF). (C) Graph showing the average sphere area at different time points (up to 38 days). […] (D) Following DNA staining, flow cytometry was performed to determine the percentage of cells engaged in the cell cycle (phase S/G2M; proliferating). […] (E) After reprogramming, ANPGs were differentiated on Matrigel coating following removal of mitogenic factors. […]
(B) Representative pictures of ANPG spheres 4 days following the first passage cultured in “standard” conditions (GF) or (C, left) in conditions to induce stemness (GF+LDN193189 0.5 μM+SB431542 10 μM+CHIR99021 3 μM). […] (D) At every passage, following dissociation with Accutase, ANPGs were counted with a fast read counting chamber. […]

C57Bl/6 ANPGs [2] = test: Stemness reprogramming screen with pharmacological modulators plus CHIR99021; assay type: cell-based, mouse; settings: 30 days, with CHIR99021 3 μM
Experimental: (C) C57Bl/6 ANPGs were plated at 10,000 cells/well of a 96 well plate and treated with the WNT agonist (CHIR99021; 3 μM) and the above mentioned compounds (B) for 30 days. Graph representing the average growth (% ANPGs cultured in presence of GF+CHIR) after 30 days. […] Data represent the average±SEM of three independent experiments.
C57Bl/6 ANPGs were plated at 10,000 cells/well of a 96 well plate and treated with the WNT agonist (CHIR99021; 3 μM) and various modulator(s).

phoenix auditory neurons [3] = test: Induced Ca2+ cytosolic release (FLUO-8) in differentiated phoenix auditory neurons; assay type: cell-based, mouse; settings: for EC50: D7 differentiated phoenix SGCs, dose response from max-min amplitude, read-out: EC50 of induced Ca2+ transients; for Induction of Ca2+ transients: phoenix auditory neurons after 7 days of differentiation
Experimental: (A-C) Kinetics of Ca^2+ transients induced by (A) Glutamate (higher trace for the higher concentration), (B) ATP (higher trace for the higher concentration), (C) Kainate in phoenix auditory neurons after 7 days of differentiation. Phoenix auditory neurons were loaded with Ca^2+ sensitive ratiometric probe (FLUO-8) and stimulated with increasing concentrations of glutamate ([…]), ATP (0.005-10 μM) or kainate (0.02-50 μM). (D) Dose response curves were extracted from the max-min amplitude values, allowing the determination of an EC50 value (in order of highest to lowest effect: Ionomycin, ATP, Glutamate, Thapsigargin and Kainate (no effect for Kainate). (E). Ionomycin and Thapsigargin were used as positive control. Data represent the average+/−SEM of 3 independent experiments.
A total of 32,000 cells/well were differentiated to auditory neurons on a 96-well plate coated with Matrigel, as previously described (Rousset et al., 2020). Differentiated cells were loaded with FLUO-8 (Interchim), according to the manufacturer's protocol. After an incubation period of typically 45 min at 37° C. with the inducing agent or control, the induced cytosolic calcium release was assessed in a FDSS/pCELL Functional Drug Screening System (Hamamatsu). The neuronal kinetics of calcium release was followed over about 10 min following treatment, with one measure every 0.5 s.
(§1) To further explore the excitatory function of differentiated phoenix SGCs, Ca2+ mobilization was studied in response to several physiological stimuli, namely glutamate, ATP, and kainate (FIG. 4). […] Ionomycin, an ionophore facilitating the transport of divalent cations across cell membranes, and thapsigargin, inhibiting the SERCA pump and therefore the transfer of Ca^2+ toward endoplasmic reticulum, were used as positive controls (FIG. 4D). The excitatory pattern of phoenix SGCs was also compared with human fetal sphere-derived ones and mouse spiral ganglion explants using live Ca^2+ imaging. […] Therefore, at any passage and following differentiation, phoenix auditory SGCs resemble the auditory neuron physiology.
Further, the impact of BDNF and NT-3 alone or in combination on phoenix auditory neurons' glutamatergic function was assessed. Phoenix neuroprogenitors were plated on poly-ornithine and laminin coated 96 well plates and differentiated for 7 days with or without BDNF and NT-3 alone or in combination. To assess effect of neurotrophins, the auditory neuron were stimulated twice with glutamate: first with 10 μM (EC90) and 10 min later with 100 μM, eliciting a maximal glutamatergic response (FIG. 15A). Traces show the Ca2+ mobilization kinetics with 50 ng/mLNT-3+25 ng/mL BDNF (top light curve) or without neurotrophins (bottom dark curve) upon glutamate stimulation as recorded with Ca2+ sensitive ratiometric probe (FLUO-8). Arrows show the max-min amplitude of the response following the first (10 μM) or the second (100 μM) glutamate stimulation. Heatmaps showing the effect of BDNF and NT-3 alone or in combination on Ca2+ release (min-max amplitude) induced by 10 μM glutamate (FIG. 15B) and 100 μM glutamate (FIG. 15C).

stemness-induced ANs = test: Glutamate-induced Ca2+ response in stemness-induced auditory neurons (Regenix); assay type: cell-based, mouse
Experimental: FIG. 21 Phenotypical characterization of stemness induced Auditory Neurons (ANs). (A) C57Bl/6 ANPG, were treated with WNT agonist (CHIR99021; 3 μM) or TGFb antagonist (dual SMAD inhibitors; LDN193189 0.5 μM, SB431542 10 μM) aiming at replicating phoenix ANPG stemness phenotype. After 38 days of induction, stemness-induced ANPGs were differentiated on Matrigel coating following removal of mitogenic factors. BDNF (10 ng/mL), NT-3 (50 ng/mL) and LIF (10 ng/mL) were added during the 7 days of differentiation. (B-E) Immunostainings in differentiated ANs were compared to stemness-induced ANPGs neurospheres at the same passage. (B-B′) B-III tubulin (TUJ, green) and Sox2 (red) stainings were respectively performed in (B) ANPGs and (B′) ANs. (C-C′) B-III tubulin (TUJ, green) and Nestin (Nes, red) stainings were respectively performed in (C) ANPGs and (C′) ANs. D-D′) B-III tubulin (TUJ, green) and S100 (red) stainings were respectively performed in (D) ANPGs and (D′) ANs. E-E′) B-III tubulin (TUJ) and KI67 stainings were respectively performed in (E) ANPGs and (E′) ANs. TUJ staining appears in green in ANPGs and red in ANs and KI67 appears in red in ANPGs and in green in ANs. […] (F-G) Excitatory potential of stemness-induced ANs was tested using live Ca^2+ imaging. Stemness-induced ANPGs were differentiated for 7 days in absence of growth factors. […]

[4] = system: human fetal sphere-derived SGCs; test: Live Ca2+ imaging in human fetal sphere-derived SGCs; assay type: cell-based
Text: as §1

[5] = system: mouse spiral ganglion explants; test: Live Ca2+ imaging in mouse spiral ganglion explants; assay type: cell-based
Text: as §1

[6] = system: spiral ganglion explants (SGE); test: Organotypic spiral ganglion explant culture, neurite outgrowth and intersections (modified Sholl analysis); assay type: cell-based, mouse; settings: P7 SGE, 96 h; for Neurite outgrowth (neurite length index, NLI): compared to spontaneous outgrowth
Experimental: FIG. 13 Effect of BDNF and NT-3 alone or in combination on organotypic spiral ganglion explant culture morphology. Spiral ganglion explants (SGE) of freshly dissected P7 old mouse pups were seeded in poly-D-lysin and laminin coated 96 well plates and incubated without (n=94) or with BDNF, NT-3 or combinations of these for 96 h. Neurite outgrowth (A-C) and intersections (D-F) were quantified with representative explant micrographs underneath (G) for the given treatments. Numbers indicate the amount of neurotrophin added in ng/ml. […] In controls, a substantial outgrowth with a mean NLI of 20828 (±5647/4442; n=94), was registered. […] (D-F) Bar graphs show the intersection quantification, representing the approximated number of neurons with outgrowth. […] (A-F) Bars represent geometric means in μm; error bars indicate ±upper and lower 95% confidence intervals for the mean. The shaded area in the bottom section of each graph represents control levels (i.e. levels for samples that were not treated with BDNF and/or NT-3). One-way ANOVA, followed by Tukey-Kramer post-hoc test. Dunn non-parametric comparison with control, *p<0.05, **p<0.01, ***p<0.001.
(§2) Organotypic spiral ganglion explant culture was carried out prior to in vitro phoenix sphere derived neuron assays, as shown in the workflow in FIG. 12. […] After fixation, specimens were stained with DAPI and for β-III-tubulin (TuJI antibody) to address the effect of neurotrophins on neurite outgrowth and neuron numbers, quantified with a modified Sholl analysis routine. For each explant, the neurite length index (NLI) was computed, and associated intersection counts served as approximation for neuron numbers. The lower rows show phoenix auditory neuroprogenitor sphere dissociation and induction of differentiation. To assess the outgrowth morphology, cells were seeded at 7,000 cells/well with presence of NT-3 or BDNF for 72 h. Differentiated cells were stained for β-III-tubulin, GFAP and DAPI for morphological analysis. Parameters such as the total neurite outgrowth, the number of neurons, the number of glial cells and the mean neurite length were assessed using a custom-made Imaris procedure. For a functional evaluation by means of a calcium response assay to glutamate, 30,000 cells were seeded per well and differentiated with supplementation of BDNF, NT-3 or combinations thereof. Via a fluorescent calcium binding dye, the cellular response to glutamate was quantified.
The effect of BDNF and NT-3 alone or in combination on organotypic spiral ganglion explant culture morphology was assessed. […] Neurite outgrowth (FIG. 13 A-C) and intersections (FIG. 13 D-F) were quantified. […]

phoenix auditory neurons [7] = test: Morphology of phoenix auditory neurons differentiated with neurotrophins (Imaris); assay type: cell-based, mouse; settings: 72 h differentiation; peaking at 100 ng/mL
Experimental: FIG. 14 Impact of BDNF and NT-3 supplementation on morphology of phoenix auditory neurons. Phoenix neuroprogenitors were differentiated for 72 h in presence of various concentrations of BDNF or NT-3 in 96-well plates. […] (A-D) The untreated control is represented by the bar in the left of each of the four graphs, BDNF treated specimens in the bars in the middle of each of the four graphs, and NT-3 treated by the bars on the right of each of the four graphs. The dashed horizontal grey line marks the median of the control group. The numbers on the x-axis denote neurotrophin concentrations in ng/ml. The horizontal lines in the boxes denote the median value and the dots the mean value. Whiskers extend from minimum to maximum. […] Exemplary images of differentiated cells after 72 h in culture and immunohistochemical staining without treatment (E) and supplementation of 100 ng/mL BDNF (F) and 100 ng/mL NT-3 (G). (E-G) Scale bar: 100 μm.
as §2
The impact of BDNF and NT-3 supplementation on morphology of phoenix auditory neurons was also assessed. Phoenix neuroprogenitors were differentiated for 72 h in presence of various concentrations of BDNF or NT-3 in 96-well plates.

Cc1c[nH]c(-c2cnc(NCCNc3ccc(C#N)cn3)nc2-c2ccc(Cl)cc2Cl)n1 [CHIR, CHIR99021]
ability of treated ANPGs to differentiate into neurons and glial cells (C57Bl/6 ANPGs [1]; 7 days differentiation on Matrigel, BIII-tubulin and S-100 staining): able to differentiate into neurons
expansion over passages (C57Bl/6 ANPGs [1]; number of cells/passage up to passage 13): not able to expand

COc1cc(-c2cc(-c3cccc(O)c3)cnc2N)cc(OC)c1OC [compound 48, K02288]
stemness reprogramming, average growth (% ANPGs cultured in presence of GF+CHIR) (C57Bl/6 ANPGs [2]): hits

N[C@@H](CCC(=O)O)C(=O)O [glutamate]
EC50 (phoenix auditory neurons [3]): 1160 nM
EC50 of glutamate-induced Ca2+ response (phoenix auditory neurons [3]; Phoenix ANs, glutamate increments, 1/2 serial dilutions): within the μM range
EC90 (phoenix auditory neurons [3]; first glutamate stimulation of phoenix auditory neurons, read-out: glutamate concentration given as EC90): 10000 nM
Induction of Ca2+ transients (phoenix auditory neurons [3]): Robust Ca^2+ transients
Ca2+ response, live Ca2+ imaging (stemness-induced ANs; glutamate 100 uM, siANs differentiated for 7 days): robust Ca2+ response
EC50 of glutamate-induced Ca2+ response (stemness-induced ANs; stemness-induced ANs (Regenix), glutamate increments, 1/2 serial dilutions): within the μM range

C=C(C)[C@H]1CN[C@H](C(=O)O)[C@H]1CC(=O)O [kainate]
Induction of Ca2+ transients (phoenix auditory neurons [3]): failed to induce Ca2+ excitatory transmission
Induction of Ca2+ transients (phoenix auditory neurons [3]; listed as Kainate): no effect
Evoked Ca2+ transients [4]: did not respond
Evoked Ca2+ transients [5]: did not respond

Nc1ncnc2c1ncn2[C@@H]1O[C@H](COP(=O)(O)OP(=O)(O)OP(=O)(O)O)[C@@H](O)[C@H]1O [ATP]
EC50 (phoenix auditory neurons [3]): 430 nM
Induction of Ca2+ transients (phoenix auditory neurons [3]): Robust Ca^2+ transients

B1: neurotrophin-3 (protein, UniProt P20783 139-257, looked up)
Neurotrophin-3: YAEHKSHRGEYSVCDSESLWVTDKSSAIDIRGHQVTVLGEIKTGNSPVKQYFYETRCKEARPVKNGCRGIDDKHWNSQCKTSQTYVRALTSENNKLVGWRWIRIDTSCVCALSRKIGRT
Intersections (approximated number of neurons with outgrowth) [6]: rose significantly in a dose-dependent manner
Neurite outgrowth (neurite length index, NLI) [6]: significantly enhanced
number of glial cells (exclusively GFAP positive cells) (phoenix auditory neurons [7]): increased in general in a dose depended manner
number of neurons (exclusively beta-III-tubulin positive cells) (phoenix auditory neurons [7]): increased in general in a dose depended manner
total neurite outgrowth (phoenix auditory neurons [7]): increased in general in a dose depended manner

B2: brain-derived neurotrophic factor (protein, UniProt P23560 19-247, looked up)
Neurotrophic factor BDNF …: APMKEANIRGQGGLAYPGVRTHGTLESVNGPKAGSRGLTSLADTFEHVIEELLDEDQKVRPNEENNKDADLYTSRVMLSSQVPLEPPLLFLLEEYKNYLDAANMSMRVRRHSDPARRGELSVCDSISEWVTAADKKTAVDMSGGTVTVLEKVPVSKGQLKQYFYETKCNPMGYTKEGCRGIDKRHWNSQCRTTQSYVRALTMDSKKRIGWRFIRIDTSCVCTLTIKRGR
notes: neurotrophin
Intersections (approximated number of neurons with outgrowth) [6]: rose significantly in a dose-dependent manner
Neurite outgrowth (neurite length index, NLI) [6]: significantly enhanced
number of glial cells (exclusively GFAP positive cells) (phoenix auditory neurons [7]): increased in general in a dose depended manner
number of neurons (exclusively beta-III-tubulin positive cells) (phoenix auditory neurons [7]): increased in general in a dose depended manner
total neurite outgrowth (phoenix auditory neurons [7]): increased in general in a dose depended manner
